Test results reported in ChEMBL document CHEMBL6074711, “Design, Synthesis, and Activity Evaluation of C-23-Modified 5-O-Mycaminosyltylonolide Derivatives” (ACS Med Chem Lett, 2024).
≈ marks a conversion by molar mass, not a printed value.

Experiments:
Type in all cases: functional
Staphylococcus aureus [1] = assay: Antibacterial activity against Staphylococcus aureus ATCC25923 incubated for 16 to 20 hrs by broth microdilution method; details: time 16-20 hrs
Escherichia coli [2] = assay: Antibacterial activity against Escherichia coli ATCC25922 incubated for 16 to 20 hrs by broth microdilution method; details: time 16-20 hrs
Enterococcus faecalis = assay: Antibacterial activity against Enterococcus faecalis ATCC29212 incubated for 16 to 20 hrs by broth microdilution method; details: time 16-20 hrs
[3] = test system: Stenotrophomonas maltophilia; assay: Antibacterial activity against Stenotrophomonas maltophilia ATCC17808 incubated for 16 to 20 hrs by broth microdilution method; details: time 16-20 hrs
Staphylococcus aureus [4] = assay: Antibacterial activity against drug-resistant Staphylococcus aureus clinical isolate M20 incubated for 16 to 20 hrs by broth microdilution method; details: time 16-20 hrs
Escherichia coli [5] = assay: Antibacterial activity against drug-resistant Escherichia coli clinical isolate 1322 incubated for 16 to 20 hrs by broth microdilution method; details: time 16-20 hrs
Escherichia coli [6] = assay: Antibacterial activity against drug-resistant Escherichia coli clinical isolate 1333 incubated for 16 to 20 hrs by broth microdilution method; details: time 16-20 hrs
Escherichia coli [7] = assay: Antibacterial activity against Escherichia coli ATCC25922 under 10^4 CFU/ml of bacterial inoculum culture by absorbance based assay
Escherichia coli [8] = assay: Antibacterial activity against Escherichia coli ATCC25922 under 10^5 CFU/ml of bacterial inoculum culture by absorbance based assay
Escherichia coli [9] = assay: Antibacterial activity against Escherichia coli ATCC25922 under 10^6 CFU/ml of bacterial inoculum culture by absorbance based assay
Escherichia coli [10] = assay: Antibacterial activity against Escherichia coli ATCC25922 under 10^7 CFU/ml of bacterial inoculum culture by absorbance based assay
Staphylococcus aureus [11] = assay: Antibacterial activity against Staphylococcus aureus ATCC25923 under 10^4 CFU/ml of bacterial inoculum culture by absorbance based assay
Staphylococcus aureus [12] = assay: Antibacterial activity against Staphylococcus aureus ATCC25923 under 10^5 CFU/ml of bacterial inoculum culture by absorbance based assay
Staphylococcus aureus [13] = assay: Antibacterial activity against Staphylococcus aureus ATCC25923 under 10^6 CFU/ml of bacterial inoculum culture by absorbance based assay
Staphylococcus aureus [14] = assay: Antibacterial activity against Staphylococcus aureus ATCC25923 under 10^7 CFU/ml of bacterial inoculum culture by absorbance based assay
Escherichia coli [15] = assay: Induction of resistance development in Escherichia coli ATCC25922 treated daily with continuous passaging measured after 5 passages by absorbance based assay; details: ATCC25922, 120 h, time 5 day
Escherichia coli [16] = assay: Induction of resistance development in Escherichia coli ATCC25922 treated daily with continuous passaging measured after 10 passages by absorbance based assay; details: ATCC25922, 240 h, time 10 day
Escherichia coli [17] = assay: Induction of resistance development in Escherichia coli ATCC25922 treated daily with continuous passaging measured after 14 passages by absorbance based assay; details: ATCC25922, 336 h, time 14 day

Row | SMILES | MIC (Staphylococcus aureus [1]) [µg/mL] | MIC (Escherichia coli [2]) [µg/mL] | MIC (Enterococcus faecalis) [µg/mL] | MIC [3] [µg/mL] | MIC (Staphylococcus aureus [4]) [µg/mL] | MIC (Escherichia coli [5]) [µg/mL] | MIC (Escherichia coli [6]) [µg/mL] | MIC (Escherichia coli [7]) [µg/mL] | MIC (Escherichia coli [8]) [µg/mL] | MIC (Escherichia coli [9]) [µg/mL] | MIC (Escherichia coli [10]) [µg/mL] | MIC (Staphylococcus aureus [11]) [µg/mL] | MIC (Staphylococcus aureus [12]) [µg/mL] | MIC (Staphylococcus aureus [13]) [µg/mL] | MIC (Staphylococcus aureus [14]) [µg/mL] | MIC (Escherichia coli [15]) [µg/mL] | MIC (Escherichia coli [16]) [µg/mL] | MIC (Escherichia coli [17]) [µg/mL]
1 | CC[C@H]1OC(=O)C[C@@H](O)[C@H](C)[C@@H](O[C@@H]2O[C@H](C)[C@@H](O[C@H]3C[C@@](C)(O)[C@@H](O)[C@H](C)O3)[C@H](N(C)C)[C@H]2O)[C@@H](CC=O)C[C@@H](C)C(=O)/C=C/C(C)=C/[C@@H]1CO[C@@H]1O[C@H](C)[C@@H](O)[C@@H](OC)[C@H]1OC [TYLOSIN] | 0.5 (≈ 0.546 µM) | > 32 | 0.5 (≈ 0.546 µM) | > 32 | 0.5 (≈ 0.546 µM) | > 32 | > 32 | 1 (≈ 1.09 µM) | 1 (≈ 1.09 µM) | 2 (≈ 2.18 µM) | 2 (≈ 2.18 µM) | 1 (≈ 1.09 µM) | 2 (≈ 2.18 µM) | 4 (≈ 4.37 µM) | 4 (≈ 4.37 µM) |  |  | 
2 | CS(=O)(=O)c1ccc([C@@H](O)[C@@H](CF)NC(=O)C(Cl)Cl)cc1 [FLORFENICOL] |  |  |  |  |  |  |  |  |  |  |  |  |  |  |  | 8 (≈ 22.3 µM) | 16 (≈ 44.7 µM) | 32 (≈ 89.3 µM)
